According to BindingDB's records for doi:10.1016/0896-6273(93)90149-l (The Scripps Research Institute, 1993):

Tests used:
[1] = target: 5-hydroxytryptamine receptor 7 (Rattus norvegicus, UniProt P32305)
[2] = target: T1, 5-hydroxytryptamine receptor 1A (Rattus norvegicus, UniProt P19327)
T1 sequence (P19327 whole entry): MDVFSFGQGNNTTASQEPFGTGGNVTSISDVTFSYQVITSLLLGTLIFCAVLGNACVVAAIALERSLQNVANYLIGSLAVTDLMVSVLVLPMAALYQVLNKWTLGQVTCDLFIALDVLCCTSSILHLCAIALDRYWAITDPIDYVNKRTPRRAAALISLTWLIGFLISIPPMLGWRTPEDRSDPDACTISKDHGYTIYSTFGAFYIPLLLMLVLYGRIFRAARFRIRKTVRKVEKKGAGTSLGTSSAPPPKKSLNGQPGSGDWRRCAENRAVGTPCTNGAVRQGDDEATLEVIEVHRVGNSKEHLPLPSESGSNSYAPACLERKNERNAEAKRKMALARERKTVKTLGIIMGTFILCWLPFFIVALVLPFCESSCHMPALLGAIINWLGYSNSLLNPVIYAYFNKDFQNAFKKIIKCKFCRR

5-hydroxytryptamine receptor 7, sequence (P32305 whole entry): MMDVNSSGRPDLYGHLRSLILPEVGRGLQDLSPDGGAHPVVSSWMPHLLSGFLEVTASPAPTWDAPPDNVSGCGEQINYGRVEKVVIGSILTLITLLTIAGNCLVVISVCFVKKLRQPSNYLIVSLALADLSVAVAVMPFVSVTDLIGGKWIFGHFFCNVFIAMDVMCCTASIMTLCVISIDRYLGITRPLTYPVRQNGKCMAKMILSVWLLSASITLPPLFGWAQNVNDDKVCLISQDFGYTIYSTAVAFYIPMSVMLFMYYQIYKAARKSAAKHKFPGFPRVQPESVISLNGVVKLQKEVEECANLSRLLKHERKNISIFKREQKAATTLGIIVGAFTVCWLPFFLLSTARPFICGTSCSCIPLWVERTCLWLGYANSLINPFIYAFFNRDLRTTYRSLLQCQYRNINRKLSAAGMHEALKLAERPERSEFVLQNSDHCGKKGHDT

CN1C[C@H](CNC(=O)OCc2ccccc2)C[C@@H]2c3cccc4c3c(cn4C)C[C@H]21 [METERGOLINE]
Ki [1]: 16 nM | Ki [2]: 273 nM

NCCc1ccc(O)c(O)c1
Ki [1]: 545 nM | Ki [2]: 545 nM

CCCN(CCC)C1CCc2cccc(O)c2C1 (stereo not given)
Ki [1]: 53 nM

CN1C[C@H](C(=O)N[C@]2(C)O[C@@]3(O)[C@@H]4CCCN4C(=O)[C@H](Cc4ccccc4)N3C2=O)C=C2c3cccc4[nH]cc(c34)C[C@H]21 [12'-hydroxy-2'-methyl-5'alpha-(phenylmethyl)ergotaman-3',6',18-trione]
Ki [1]: 17 nM | Ki [2]: 3 nM

CN1C[C@@H](NS(=O)(=O)N(C)C)C[C@@H]2c3cccc4c3c(cn4C)C[C@H]21 [MESULERGINE]
Ki [1]: 9.3 nM | Ki [2]: 545 nM

Cc1nc2sccn2c(=O)c1CCN1CCC(=C(c2ccc(F)cc2)c2ccc(F)cc2)CC1
Ki [1]: 33 nM

CC(C)NCC(O)COc1cccc2[nH]ccc12 (stereo not given) [LB-46]
Ki [1]: 545 nM | Ki [2]: 31 nM

O=C1CC2(CCCC2)CC(=O)N1CCCCN1CCN(c2ncccn2)CC1 [BUSPAR]
Ki [1]: 375 nM

COc1cc(N)c(Cl)cc1C(=O)NC1CN2CCC1CC2 (stereo not given) [ZACOPRIDE,R]
Ki [1]: 545 nM

COc1ccccc1N1CCN(CCCCN2C(=O)c3ccccc3C2=O)CC1 [2-{4-[4-(2-Methoxy-phenyl)-piperazin-1-yl]-butyl}-isoindole-1,3-dione]
Ki [1]: 79.1 nM

CC[C@@H](CO)NC(=O)[C@@H]1C=C2c3cccc4c3c(cn4C)C[C@H]2N(C)C1
Ki [1]: 17 nM | Ki [2]: 545 nM

CSc1ccc2c(c1)C(N1CCN(C)CC1)Cc1ccccc1S2 (stereo not given) [methanesulfonic acid;1-methyl-4-(3-methylsulfanyl-5,6-dihydrobenzo[b][1]benzothiepin-5-yl)piperazine]
Ki [2]: 8.7 nM

CNS(=O)(=O)Cc1ccc2[nH]cc(CCN(C)C)c2c1 [Sumax]
Ki [1]: 545 nM

NCCc1c[nH]c2ccc(C(N)=O)cc12 [[3H]-5-carboxamidotryptamine]
Ki [1]: 0.45 nM
